US12570687B2, “Triterpenoid compounds, pharmaceutical compositions thereof, and their use for treating a nuclear receptor subfamily 4 group a member 1-mediated disease” (NUCMITO PHARMACEUTICALS COMPANY LIMITED, priority 2019, dated 2026)

Assays:
HepG2 (liver cancer) = assay: MTT antiproliferative assay, HepG2; type: cell-based; settings: Homo sapiens, HepG2, 10 μM, 48 or 72 h, read-out: inhibition of cell growth, HepG2
Outline: (§1)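 2,000-5,000 cells/well; cpd 0.137–100 μM or 10 μM single dose; 37° C, 48 or 72 h; MTT 4 h; DMSO dissolve; A490; % viability vs DMSO vehicle. Activity banded by % growth inhibition at 10 μM.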

[1] = test system: A431 (epidermoid carcinoma); assay: MTT antiproliferative assay, A431; type: cell-based; settings: Homo sapiens, A-431, A431, 10 μM, 48 or 72 h, read-out: inhibition of cell growth, A431
Outline: as §1

HeLa (ovarian cancer) = assay: MTT antiproliferative assay, HeLa; type: cell-based; settings: Homo sapiens, 48 or 72 h, read-out: inhibition of cell growth, HELA
Outline: as §1

[2] = test system: A375 (malignant melanoma); assay: MTT antiproliferative assay, A375; type: cell-based; settings: Homo sapiens, A-375, A375, 10 μM, 48 or 72 h, read-out: inhibition of cell growth, A375
Outline: as §1

Nur77-LBD = Nur77-LBD (Homo sapiens, UniProt P22736); assay: Surface plasmon resonance (SPR) binding to Nur77-LBD; settings: BIAcore T200, 25° C., 1:1 Langmuir binding mode, read-out: Kd when binding to the Nur77-LBD protein
Description: A test compound was analyzed for its binding kinetics with Nur77-LBD at 25° C. on a BIAcore T200 machine with CM5 chips. PBSP was used for all measurements. For SPR measurements, Nur77-LBD proteins were purified. A blank channel was used as negative control. About 10,000 response units of Nur77-LBD were immobilized on the chips. When the data collection was finished in each cycle, the sensor surface was regenerated with glycine-HCl at pH 2.5. A serial of concentrations ranging from 0.15 to 5.0 μM of the test compound was used. Sensograms were fit globally with BIAcore T200 analysis using 1:1 Langmuir binding mode.

SW620 (colon cancer) = assay: MTT antiproliferative assay, SW620; type: cell-based; settings: Homo sapiens, SW-620, SW620, 10 μM, 48 or 72 h, read-out: inhibition of cell growth, SW620
Outline: as §1

[3] = test system: A549 (lung adenocarcinoma); assay: MTT antiproliferative assay, A549; type: cell-based; settings: Homo sapiens, A549, 10 μM, 48 or 72 h, read-out: inhibition of cell growth, A549
Outline: as §1

[4] = test system: MDA-MB-231 (breast cancer); assay: MTT antiproliferative assay, MDA-MB-231; type: cell-based; settings: Homo sapiens, MDA-MB-231, 10 μM, 48 or 72 h, read-out: inhibition of cell growth, MDA-MB-231
Outline: as §1

Chain of Nur77-LBD (P22736 360-595 limits assumed, species assumed): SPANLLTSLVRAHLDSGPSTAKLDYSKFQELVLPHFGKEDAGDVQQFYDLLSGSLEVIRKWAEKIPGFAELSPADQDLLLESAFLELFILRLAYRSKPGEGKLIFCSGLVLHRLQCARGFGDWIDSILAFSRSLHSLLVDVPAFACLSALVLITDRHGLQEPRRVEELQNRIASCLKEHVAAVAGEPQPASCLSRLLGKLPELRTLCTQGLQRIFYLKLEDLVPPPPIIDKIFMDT

Row | Kd (Nur77-LBD) | Compound | inhibition at 10 µM (HepG2 (liver cancer)) | inhibition at 10 µM [1] | inhibition at 10 µM (HeLa (ovarian cancer)) | inhibition at 10 µM [2] | inhibition at 10 µM (SW620 (colon cancer)) | inhibition at 10 µM [3] | inhibition at 10 µM [4]
1 | 0.39 µM | CO[C@]1(C)C(=O)C(=O)C=C2C1=CC=C1[C@@]2(C)CC[C@@]2(C)[C@@H]3C[C@](C)(C(=O)O)CC[C@]3(C)CC[C@]12C [Compound A1, (2R,4aS,6aS,9S,12bR,14aS,14bR)-9-methoxy-2,4a,6a,9,12b,14a-hexamethyl-10,11-dioxo-1,2,3,4,4a,5,6,6a,9,10,11,12b,13,14,14a,14b-hexadecahydropicene-2-carboxylic acid] | 50 to 80% | 50 to 80% | ≥ 80% | 30 to 50% | 50 to 80% | 30 to 50% | 50 to 80%
2 | 0.56 µM | CNC(=O)[C@]1(C)CC[C@]2(C)CC[C@]3(C)C4=CC=C5C(=CC(=O)C(=O)[C@@]5(C)OC)[C@]4(C)CC[C@@]3(C)[C@@H]2C1 [Compound A7, (2R,4aS,6aS,9S,12bR,14aS,14bR)-9-methoxy-N,2,4a,6a,9,12b,14a-heptamethyl-10,11-dioxo-1,2,3,4,4a,5,6,6a,9,10,11,12b,13,14,14a,14b-hexadecahydropicene-2-carboxamide] | 50 to 80% | 50 to 80% | ≥ 80% | 50 to 80% | 30 to 50% | 30 to 50% | ≥ 80%
3 | 0.89 µM | CO[C@]1(C)C(=O)C(=O)C=C2C1=CC=C1[C@@]2(C)CC[C@@]2(C)[C@@H]3C[C@](C)(C(N)=O)CC[C@]3(C)CC[C@]12C [Compound A9, (2R,4aS,6aS,9S,12bR,14aS,14bR)-9-methoxy-2,4a,6a,9,12b,14a-hexamethyl-10,11-dioxo-1,2,3,4,4a,5,6,6a,9,10,11,12b,13,14,14a,14b-hexadecahydropicene-2-carboxamide] | 50 to 80% | 50 to 80% | ≥ 80% | 30 to 50% | 50 to 80% | 30 to 50% | ≥ 80%
